Laboratory results: patent publication US9919000B2, “Altering cancer cellular functions through proton mopping” (priority 2013, dated 2018)

Key:
[1] = test system: mouse 4T1 breast tumor; assay: In vivo syngeneic mouse 4T1 breast tumor study; parameters: species or system Balb/c mice
Description: The Purpose: to assess the anti-tumor activity of the existing compound, C12H25NO8, PEGylated amine functionalized glycoside, 2-[2(2-Aminoethoxy)ethoxy]ethyl a-D-mannopyranoside, on a model of mouse 4T1 breast tumor in Balb/C mice.
Animal and Facility: healthy female Balb/c (5-6 weeks old), purchased from Harlan Laboratories, were allowed to acclimate for 3 days in a specific pathogen free animal facility. Animal housing, handling and procedures were followed according to the protocols and guidelines approved by the lab's Institutional Animal Care and Use Committee (IACUC).
In Vivo Syngeneic Tumor Study Design: Murine 4T1 breast tumor cells were kept in RPMI-1640 medium containing 10% FBS and 1% Pen/Strep. On the day of inoculation, the cells were harvested according to standard protocol (Beth Pulaski) and re-suspended in PBS at the cell concentration of 2.5×10^5 cells/ml. Each animal was injected with 0.1 ml of the cell solution into the right flank of Balb/c mice following the SOP. On the 8th day post-inoculation, all tumor volumes were measured and the animals were divided into two groups, control and treated.
Study Design: to deliver a predetermined dose of the compound intravenously for 5 days.
Study Objective: to observe clinically the reduction of the size of the tumors using calipers (our “biomarker”).[FIG. 2]
(§1) Treatment: the tested compound was prepared right before dosing on day 8 after 4T1 inoculation. Each mouse received a predetermined dose of either the compound or saline intravenously daily for 5 consecutive days. The mice tumor volumes and mice body weights were monitored every other day along with other general behavior factors.
(§2) Endpoints: animal was euthanized if one of the following conditions was identified: • its neoplasm reached the predetermined 1000 cubic mms • the animal became moribund • body weight lost more than 20% of its original weight

[2] = Tolerability in the 4T1 tumor study (body weight, general behavior); assay type: in vivo; details: intravenous daily dosing for 5 consecutive days, tumor-bearing Balb/c mice
Description: as §1, §2

With `NCCOCCOCCO[C@H]1OC(CO)[C@@H](O)[C@H](O)C1O` (stereo partly drawn) [compound 5, 1-(2-(2-(2-Aminoethoxy)ethoxy)ethoxy-D-mannopyranoside] the “maximal tumor growth inhibition index (TIC ratio)” value ([1]; by day 10, intravenously daily for 5 consecutive days from day 8 after 4T1 inoculation, tumor size by calipers) was “around 48%”, the “4T1 tumor growth in the treated group” value ([1]; during treatment (day 8 to day 12), control tumors doubled every 2-3 days) was “grew slowly” and the tumor reduction ([1]; syngeneic mouse breast cancer model, FIG. 1) was 48%. The “toxic effects / tolerability” value [2] was “no toxic effects were observed”.
